Literature values as cited in paper PMC4629110 (Acta Pharmaceutica Sinica. B, 2014).

Test system: BuChE
Conditions: read-out: IC50 BuChE reported in the literature

SMILES: CC(C)NP(=O)(NC(C)C)OP(=O)(NC(C)C)NC(C)C [ISO-OMPA, tetraisopropyl pyrophosphoramide]
- IC50: 980 nM
